Reference: patent US4965280A, “Antifungal carbinols” (E. I. Du Pont de Nemours and Company, priority 1989, dated 1990)

What was measured:
BERMUDAGRASS = experiment: Test F; format: in vivo, Cynodon dactylon
From the text: (§1) Weed species were planted 3 or 4 per 15-cm diameter pot in Sassafras sandy loam (pH 6.8; 1% OM). Cotton was planted separately in the same sized pot. Postemergence plantings were made 12-16 days prior to treating so plants were in the 2- to 3-leaf stage (5-12 cm tall). Preemergence plantings were made the day before treating. Compounds were sprayed in a suitable non-phytotoxic solvent at 374 l/ha, then after 3 weeks of growth in a greenhouse, plant responses were visually rated on a percent scale where 0=no injury and 100=plant death.

COKER COTTON = experiment: Test F; format: in vivo, Gossypium hirsutum
From the text: as §1

LAMBSQUARTER = experiment: Test F; format: in vivo, Chenopodium album
From the text: as §1

CMN PURSLANE = experiment: Test F; format: in vivo, Portulaca oleracea
From the text: as §1

JOHNSONGRASS = experiment: Test F; format: in vivo, Sorghum halepense
From the text: as §1

RICE JAP TOL = experiment: Test C rice paddy; format: in vivo, Japonica rice; conditions: 21 days
Summary of the method: (§2)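 Transplanted paddy test in flooded silt loam: Japonica and Indica rice at 2.0–2.5 leaf stage, water plantain, Scirpus and Cyperus seedlings or sprouted tubers, barnyardgrass from seed. Water raised to 3 cm 3–4 days after planting; compound in nonphytotoxic solvent added to paddy water within 24 h. Greenhouse.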

RICE INDICA TOL = experiment: Test C rice paddy; format: in vivo; conditions: 21 days
Summary of the method: as §2

`C=C(c1ccc(F)cc1)C(O)(Cn1cncn1)c1ccc(F)cc1F` (stereo not drawn) [Example 4, 2-(2,4-Difluorophenyl)-3-(4-fluorophenyl)-1-(1H-1,2,4-triazol-1-yl)-3-buten-2-ol] was tested, and the plant response (BERMUDAGRASS; PREEMERGENCE 0032 GM/HA) was 0%, the plant response (BERMUDAGRASS; PREEMERGENCE 0064 GM/HA) was 20% and the plant response (BERMUDAGRASS; PREEMERGENCE 0125 GM/HA) was 95%. It also gave a plant response (BERMUDAGRASS; PREEMERGENCE 0250 GM/HA) of 100%, a plant response (BERMUDAGRASS; PREEMERGENCE 0500 GM/HA) of 100% and a plant response (COKER COTTON; PREEMERGENCE 0032 GM/HA) of 0%. It also gave a plant response (COKER COTTON; PREEMERGENCE 0064 GM/HA) of 0%, a plant response (COKER COTTON; PREEMERGENCE 0125 GM/HA) of 0% and a plant response (COKER COTTON; PREEMERGENCE 0250 GM/HA) of 0%. The plant response (COKER COTTON; PREEMERGENCE 0500 GM/HA) was 0%, the plant response (LAMBSQUARTER; PREEMERGENCE 0032 GM/HA) was 0% and the plant response (LAMBSQUARTER; PREEMERGENCE 0064 GM/HA) was 20%. The plant response (LAMBSQUARTER; PREEMERGENCE 0125 GM/HA) was 20%, the plant response (LAMBSQUARTER; PREEMERGENCE 0250 GM/HA) was 60% and the plant response (LAMBSQUARTER; PREEMERGENCE 0500 GM/HA) was 70%. It also gave a plant response (CMN PURSLANE; PREEMERGENCE 0032 GM/HA) of 0%, a plant response (CMN PURSLANE; PREEMERGENCE 0064 GM/HA) of 20% and a plant response (CMN PURSLANE; PREEMERGENCE 0125 GM/HA) of 30%. The plant response (CMN PURSLANE; PREEMERGENCE 0250 GM/HA) was 30%, the plant response (CMN PURSLANE; PREEMERGENCE 0500 GM/HA) was 80% and the plant response (JOHNSONGRASS; PREEMERGENCE 0032 GM/HA) was 0%. The plant response (JOHNSONGRASS; PREEMERGENCE 0064 GM/HA) was 0%, the plant response (JOHNSONGRASS; PREEMERGENCE 0125 GM/HA) was 20% and the plant response (JOHNSONGRASS; PREEMERGENCE 0250 GM/HA) was 50%. For the same compound, the plant response (JOHNSONGRASS; PREEMERGENCE 0500 GM/HA) was 50%.

With `C=C(c1ccccc1Cl)C(O)(Cn1cncn1)c1ccc(F)cc1F` (stereo not drawn) [Example 35] the plant response (RICE JAP TOL; 0032 G/HA) was 0, the plant response (RICE JAP TOL; 0125 G/HA) was 20 and the plant response (RICE JAP TOL; 0500 G/HA) was 50. It also gave a plant response (RICE JAP TOL; 2000 G/HA) of 50, a plant response (RICE INDICA TOL; 0032 G/HA) of 0 and a plant response (RICE INDICA TOL; 0125 G/HA) of 55. The plant response (RICE INDICA TOL; 0500 G/HA) was 55 and the plant response (RICE INDICA TOL; 2000 G/HA) was 60.
